Measurements published in patent US20230399312A1, “SUBSTITUTED PYRIMIDINES AND METHODS OF USE” (THERAVANCE BIOPHARMA R&D IP, LLC, priority 2020, published 2023).

Columns and labels:
[1] = test system: TGF-β-stimulated SMAD3 phosphorylation in BEAS-2B cells; test: Cellular ALK5 potency assay, inhibition of TGF-β stimulated pSMAD3 formation in BEAS-2B cells; type: cell-based; conditions: Homo sapiens, pSMAD3, TGF-β 10 ng/mL, read-out: BEAS2B pIC50 (converted)
Procedure, shortened: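 Human lung epithelial BEAS-2B cells were pre-treated with compound for 1 h at 37 °C, then stimulated with TGF-β (final 10 ng/mL) for 30 min before lysis. pSMAD3 was quantified by AlphaLISA and pIC50 derived from dose-dependent signal change versus TGF-β-stimulated untreated cells.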

[2] = biological target: T1, recombinant human ALK5 (TGF-βR1) protein (Homo sapiens, UniProt P36897); test: Biochemical ALK5 (TGF-βR1) assay to measure pKi (LANCE Ultra ULight kinase assay); conditions: apparent pKi, converted from pIC50 by Cheng-Prusoff
T1 construct: purchased Life Technologies PR9075A
T1 sequence (P36897 34-503): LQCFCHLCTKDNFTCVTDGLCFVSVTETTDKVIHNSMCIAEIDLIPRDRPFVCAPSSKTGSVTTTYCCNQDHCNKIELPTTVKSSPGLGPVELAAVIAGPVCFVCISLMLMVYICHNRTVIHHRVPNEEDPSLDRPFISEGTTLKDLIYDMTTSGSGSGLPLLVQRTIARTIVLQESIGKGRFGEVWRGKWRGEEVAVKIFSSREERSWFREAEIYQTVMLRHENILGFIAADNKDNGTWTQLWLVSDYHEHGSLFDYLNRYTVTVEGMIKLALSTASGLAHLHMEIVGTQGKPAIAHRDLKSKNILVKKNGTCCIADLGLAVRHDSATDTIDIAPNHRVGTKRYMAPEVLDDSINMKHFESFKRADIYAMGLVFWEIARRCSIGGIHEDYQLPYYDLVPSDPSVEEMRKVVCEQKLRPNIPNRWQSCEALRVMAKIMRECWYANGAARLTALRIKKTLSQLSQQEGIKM
Procedure, shortened: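 Enzyme preincubated with compound for 60 min at room temperature, then reacted with ATP (125 μM as 5× stock) for 60 min at 37 °C. Stopped with EDTA plus Eu-anti-phospho-Topoisomerase 2-alpha (Thr1342) antibody and read by TR-FRET at 665 nm. pIC50 from a 4-parameter fit, converted to pKi by Cheng-Prusoff.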

Row | Structure (SMILES) | IC50 [1] | Ki [2]
1 | Cc1cccc(-c2nccc(Nc3ccnc(Nc4ccc(CN5CCCC(C(=O)NCC6CNC6)C5)cc4)n3)n2)n1 (stereo not shown) [Compound 495, N-(azetidin-3-ylmethyl)-1-[[4-[[4-[[2-(6-methyl-2-pyridyl)pyrimidin-4-yl]amino]pyrimidin-2-yl]amino]phenyl]methyl] piperidine-3-carboxamide] | 25.1 to 158 nM | 0.0398 to 0.316 nM
2 | Cc1cccc(-c2nccc(Nc3ccnc(Nc4ccc(N(C)C5CNC5)cc4)n3)n2)n1 [Compound 496, N2-[4-[azetidin-3-yl(methyl)amino]phenyl]-N4-[2-(6-methyl-2-pyridyl)pyrimidin-4-yl]pyrimidine-2,4-diamine] | 25.1 to 158 nM | 0.0398 to 0.316 nM
3 | Cc1cccc(-c2nccc(Nc3ccnc(Nc4cccc(N(C)C(=O)C5CCNCC5)c4)n3)n2)n1 [Compound 497, N-methyl-N-[3-[[4-[[2-(6-methyl-2-pyridyl)pyrimidin-4-yl]amino]pyrimidin-2-yl]amino]phenyl]piperidine-4-carboxamide] | 200 to 1260 nM | 0.0398 to 0.316 nM
4 | Cc1cccc(-c2nc(CC(=O)NCCO)cc(Nc3ccnc(Nc4ccc(N5CCNCC5)cc4)n3)n2)n1 [Compound 498, N-(2-hydroxyethyl)-2-[2-(6-methyl-2-pyridyl)-6-[[2-(4-piperazin-1-ylanilino)pyrimidin-4-yl]amino]pyrimidin-4-yl]acetamide] | 200 to 1260 nM | 0.398 to 3.16 nM
5 | Cc1cccc(-c2nccc(Nc3ccnc(Nc4ccc(N5CCNCC5)c(CC(=O)O[C@@H]5CCN(C)C5)c4)n3)n2)n1 [Compound 499, [(3R)-1-methylpyrrolidin-3-yl] 2-[5-[[4-[[2-(6-methyl-2-pyridyl)pyrimidin-4-yl]amino]pyrimidin-2-yl]amino]-2-piperazin-1-yl-phenyl]acetate] | 200 to 1260 nM | 0.0398 to 0.316 nM
6 | Cc1cccc(-c2nccc(Nc3ccnc(Nc4csc(N)c4)n3)n2)n1 [Compound 500, N2-(5-amino-3-thienyl)-N4-[2-(6-methyl-2-pyridyl)pyrimidin-4-yl]pyrimidine-2,4-diamine] | 25.1 to 158 nM | 0.398 to 3.16 nM
7 | Cc1cccc(-c2nccc(Nc3ccnc(Nc4ccc(CN5CC(N(C)C)C5)cc4)n3)n2)n1 [Compound 501, N2-[4-[[3-(dimethylamino)azetidin-1-yl]methyl]phenyl]-N4-[2-(6-methyl-2-pyridyl)pyrimidin-4-yl]pyrimidine-2,4-diamine] | 25.1 to 158 nM | 0.0398 to 0.316 nM
8 | Cc1cccc(-c2nccc(Nc3ccnc(Nc4ccc(N5CCOCC5)cc4F)n3)n2)n1 [Compound 502, N2-(2-fluoro-4-morpholino-phenyl)-N4-[2-(6-methyl-2-pyridyl)pyrimidin-4-yl]pyrimidine-2,4-diamine] | 25.1 to 158 nM | 3.98 to 31.6 nM
9 | CNCc1ccc(Nc2nccc(Nc3ccnc(-c4cccc(C)n4)n3)n2)cc1 [Compound 503, N2-[4-(methylaminomethyl)phenyl]-N4-[2-(6-methyl-2-pyridyl)pyrimidin-4-yl]pyrimidine-2,4-diamine] | 25.1 to 158 nM | ≤ 0.0316 nM
10 | Cc1cccc(-c2nccc(Nc3ccnc(Nc4csc(C(=O)O[C@@H]5CCN(C)C5)c4)n3)n2)n1 [Compound 504, [(3R)-1-methylpyrrolidin-3-yl] 4-[[4-[[2-(6-methyl-2-pyridyl)pyrimidin-4-yl]amino]pyrimidin-2-yl]amino]thiophene-2-carboxylate] | 25.1 to 158 nM | 0.0398 to 0.316 nM
11 | Cc1cccc(-c2nccc(Nc3ccnc(Nc4cccc(C(=O)N5CCNCC5)c4)n3)n2)n1 [Compound 505, [3-[[4-[[2-(6-methyl-2-pyridyl)pyrimidin-4-yl]amino]pyrimidin-2-yl]amino]phenyl]-piperazin-1-yl-methanone] | 25.1 to 158 nM | 0.398 to 3.16 nM
12 | Cc1cccc(-c2nccc(Nc3ccnc(Nc4ccc(C(=O)O[C@H]5CCN(C)C5)s4)n3)n2)n1 [Compound 507, [(3S)-1-methylpyrrolidin-3-yl] 5-[[4-[[2-(6-methyl-2-pyridyl)pyrimidin-4-yl]amino]pyrimidin-2-yl]amino]thiophene-2-carboxylate] | 25.1 to 158 nM | 0.0398 to 0.316 nM
13 | Cc1cccc(-c2nccc(Nc3ccnc(Nc4nc(CN5CCC[C@@H](C(=O)O[C@H]6CCN(C)C6)C5)cs4)n3)n2)n1 [Compound 508, (S)-1-methylpyrrolidin-3-yl (R)-1-((2-((4-((2-(6-methylpyridin-2-yl)pyrimidin-4-yl)amino)pyrimidin-2-yl)amino)thiazol-4-yl)methyl)piperidine-3-carboxylate] | 25.1 to 158 nM | 0.398 to 3.16 nM
14 | Cc1cccc(-c2nccc(Nc3ccnc(Nc4cccc(NC(=O)N5CCN(C)CC5)c4)n3)n2)n1 [Compound 509, 4-methyl-N-[3-[[4-[[2-(6-methyl-2-pyridyl)pyrimidin-4-yl]amino]pyrimidin-2-yl]amino]phenyl]piperazine-1-carboxamide] | 25.1 to 158 nM | 0.0398 to 0.316 nM
15 | Cc1cccc(-c2nccc(Nc3ccnc(Nc4nc(C(=O)N5CCNCC5)cs4)n3)n2)n1 [Compound 510, [2-[[4-[[2-(6-methyl-2-pyridyl)pyrimidin-4-yl]amino]pyrimidin-2-yl]amino]thiazol-4-yl]-piperazin-1-yl-methanone] | 25.1 to 158 nM | 0.0398 to 0.316 nM
16 | COc1cc(Nc2nccc(Nc3ccnc(-c4cccc(C)n4)n3)n2)ccc1NC(=O)C1CCNCC1 [Compound 511, N-[2-methoxy-4-[[4-[[2-(6-methyl-2-pyridyl)pyrimidin-4-yl]amino]pyrimidin-2-yl]amino]phenyl]piperidine-4-carboxamide] | 25.1 to 158 nM | 0.398 to 3.16 nM
17 | Cc1cccc(-c2nccc(Nc3ccnc(Nc4ccc5[nH]nnc5c4)n3)n2)n1 [Compound 512, N2-(1H-benzotriazol-5-yl)-N4-[2-(6-methyl-2-pyridyl)pyrimidin-4-yl]pyrimidine-2,4-diamine] | 25.1 to 158 nM | 0.398 to 3.16 nM
18 | Cc1cccc(-c2nccc(Nc3ccnc(Nc4ccc(COCCO)cc4)n3)n2)n1 [Compound 513, 2-[[4-[[4-[[2-(6-methyl-2-pyridyl)pyrimidin-4-yl]amino]pyrimidin-2-yl]amino]phenyl]methoxy] ethanol] | 25.1 to 158 nM | 0.398 to 3.16 nM
19 | Cc1cccc(-c2nccc(Nc3ccnc(Nc4ccc(N)c(C)c4)n3)n2)n1 [Compound 514, N2-(4-amino-3-methyl-phenyl)-N4-[2-(6-methyl-2-pyridyl)pyrimidin-4-yl]pyrimidine-2,4-diamine] | ≤ 20 nM | 0.398 to 3.16 nM
20 | Cc1cccc(-c2nccc(Nc3ccnc(Nc4ccc(N5CCNCC5)c(C)c4)n3)n2)n1 [Compound 515, N2-(3-methyl-4-piperazin-1-yl-phenyl)-N4-[2-(6-methyl-2-pyridyl)pyrimidin-4-yl]pyrimidine-2,4-diamine] | 25.1 to 158 nM | 0.0398 to 0.316 nM
21 | COC(=O)C1CCCN(Cc2ccc(Nc3nccc(Nc4ccnc(-c5cccc(C)n5)n4)n3)cc2)C1 (stereo not shown) [Compound 516, methyl 1-[[4-[[4-[[2-(6-methyl-2-pyridyl)pyrimidin-4-yl]amino]pyrimidin-2-yl]amino]phenyl]methyl] piperidine-3-carboxylate] | 25.1 to 158 nM | 0.0398 to 0.316 nM
22 | COC(=O)CCc1ccc(Nc2nccc(Nc3ccnc(-c4cccc(C)n4)n3)n2)cc1 [Compound 517, methyl 3-[4-[[4-[[2-(6-methyl-2-pyridyl)pyrimidin-4-yl]amino]pyrimidin-2-yl]amino]phenyl]propanoate] | 200 to 1260 nM | 0.398 to 3.16 nM
23 | Cc1cccc(-c2nccc(Nc3ccnc(Nc4ccc(CN5CCC(C(=O)OCC6CNC6)C5)cc4)n3)n2)n1 (stereo not shown) [Compound 518, azetidin-3-ylmethyl 1-[[4-[[4-[[2-(6-methyl-2-pyridyl)pyrimidin-4-yl]amino]pyrimidin-2-yl]amino]phenyl]methyl] pyrrolidine-3-carboxylate] | 25.1 to 158 nM | 0.0398 to 0.316 nM
24 | Cc1cccc(-c2nccc(Nc3ccnc(Nc4cccc(CN5C[C@@H](C)N[C@@H](C)C5)c4)n3)n2)n1 [Compound 519, N4-[2-(6-methyl-2-pyridyl)pyrimidin-4-yl]-N2-[3-[[rac-(3R,5S)-3,5-dimethylpiperazin-1-yl]methyl]phenyl]pyrimidine-2,4-diamine] | 25.1 to 158 nM | 0.0398 to 0.316 nM
25 | Cc1cccc(-c2nccc(Nc3ccnc(Nc4nc(C(=O)NC5(CO)CCNC5)cs4)n3)n2)n1 (stereo not shown) [Compound 520, N-[3-(hydroxymethyl)pyrrolidin-3-yl]-2-[[4-[[2-(6-methyl-2-pyridyl)pyrimidin-4-yl]amino]pyrimidin-2-yl]amino]thiazole-4-carboxamide] | 25.1 to 158 nM | 0.0398 to 0.316 nM
26 | Cc1cccc(-c2nccc(Nc3ccnc(Nc4cccc(CN5CCN(C)CC5)c4)n3)n2)n1 [Compound 521, N2-[3-[(4-methylpiperazin-1-yl)methyl]phenyl]-N4-[2-(6-methyl-2-pyridyl)pyrimidin-4-yl]pyrimidine-2,4-diamine] | 25.1 to 158 nM | 0.0398 to 0.316 nM
